Legend:
Format in all cases: cell-based
CFTR ΔF508 mutant = target: T1, CFTR ΔF508 mutant (Homo sapiens, UniProt P13569, DEL508-508); assay: YFP-halide influx assay for the CFTR-ΔF508 mutation (CFBE41o- cells); settings: forskolin 10.67 μM; for EC50: from (1−F/F0) vs concentration plot
T1 construct: expressed in transfected cells; host or cells: CFBE41o- cells, adenoviral transduction
In short: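 EC50 derived from plotting 1−F/F0 (fluorescence 36 s after iodide injection over pre-injection value) against compound concentration. Cells: CFBE41o- transduced with ΔF508-CFTR and YFP quench reporter, corrected 24 h at 27° C or by a CFTR modulator at 37° C.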

CFTR G551D mutant = target: T2, CFTR G551D mutant (Homo sapiens, UniProt P13569, G551D); assay: YFP-halide influx assay for the CFTR-G551D mutation (HEK293 cells); settings: forskolin 10.67 μM
T2 construct: expressed in transfected cells; host or cells: HEK293 cells, reverse transfection with plasmids
T2 sequence (P13569 whole entry G551D): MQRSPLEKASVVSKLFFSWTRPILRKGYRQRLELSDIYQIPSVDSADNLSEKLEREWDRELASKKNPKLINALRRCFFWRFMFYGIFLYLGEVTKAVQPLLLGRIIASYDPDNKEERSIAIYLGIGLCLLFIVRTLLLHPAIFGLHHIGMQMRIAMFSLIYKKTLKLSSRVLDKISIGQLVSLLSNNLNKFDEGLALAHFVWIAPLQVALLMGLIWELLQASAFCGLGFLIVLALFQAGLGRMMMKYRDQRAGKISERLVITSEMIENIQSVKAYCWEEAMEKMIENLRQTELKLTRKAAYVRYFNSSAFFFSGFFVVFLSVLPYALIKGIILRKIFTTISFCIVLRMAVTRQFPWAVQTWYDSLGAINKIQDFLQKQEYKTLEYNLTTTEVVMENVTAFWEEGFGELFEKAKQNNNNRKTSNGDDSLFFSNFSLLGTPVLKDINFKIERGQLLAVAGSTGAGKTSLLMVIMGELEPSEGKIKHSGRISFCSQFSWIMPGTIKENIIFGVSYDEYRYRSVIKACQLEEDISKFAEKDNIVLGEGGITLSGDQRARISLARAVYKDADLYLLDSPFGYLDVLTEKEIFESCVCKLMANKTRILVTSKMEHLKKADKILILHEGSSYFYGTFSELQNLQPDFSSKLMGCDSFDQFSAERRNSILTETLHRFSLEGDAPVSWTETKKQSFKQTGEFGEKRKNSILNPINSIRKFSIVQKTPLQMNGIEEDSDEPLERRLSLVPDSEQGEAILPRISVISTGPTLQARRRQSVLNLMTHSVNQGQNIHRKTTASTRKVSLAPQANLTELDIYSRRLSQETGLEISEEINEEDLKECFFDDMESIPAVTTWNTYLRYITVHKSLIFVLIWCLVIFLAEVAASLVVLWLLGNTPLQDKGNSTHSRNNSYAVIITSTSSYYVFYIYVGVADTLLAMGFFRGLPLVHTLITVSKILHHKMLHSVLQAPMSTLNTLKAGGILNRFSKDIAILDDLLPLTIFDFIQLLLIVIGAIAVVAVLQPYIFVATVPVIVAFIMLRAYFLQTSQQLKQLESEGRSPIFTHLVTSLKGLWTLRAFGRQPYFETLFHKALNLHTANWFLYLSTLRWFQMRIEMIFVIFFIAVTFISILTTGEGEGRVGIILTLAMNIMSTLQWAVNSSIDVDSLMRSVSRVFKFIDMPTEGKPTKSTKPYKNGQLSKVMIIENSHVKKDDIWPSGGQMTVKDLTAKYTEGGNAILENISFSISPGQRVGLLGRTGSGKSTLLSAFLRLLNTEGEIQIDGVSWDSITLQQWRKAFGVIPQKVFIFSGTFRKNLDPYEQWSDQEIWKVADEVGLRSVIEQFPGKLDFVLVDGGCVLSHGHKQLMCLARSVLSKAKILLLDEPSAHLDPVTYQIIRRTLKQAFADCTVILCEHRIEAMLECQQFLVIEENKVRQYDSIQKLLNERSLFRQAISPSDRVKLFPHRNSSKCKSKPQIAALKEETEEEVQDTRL
In short: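 Channel opening read as I⁻-driven quenching of a YFP H148Q/I152L/F47L reporter over 7 s post-injection, expressed as 1−F/F0 and fitted against concentration for EC50. Cells were HEK293 co-transfected at seeding with G551D CFTR plus reporter, then grown 24 h at 37 °C, 5% CO2.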

CFTR-G1349D = target: T3, CFTR-G1349D (Homo sapiens, UniProt P13569, G1349D); assay: YFP-halide influx assay for the CFTR-G1349D
T3 construct: expressed in transfected cells
T3 sequence (P13569 whole entry G1349D): as the sequence (P13569 whole entry G551D) above, with D551G, G1349D counted along it
From the text: (§1) The YFP halide influx assay measured the functionality of the cystic fibrosis Transmembrane Conductance regulator (CFTR) channels. The assay was used to evaluate the capacity of compounds to increase the channel opening of existing mutant CFTR channels in the membrane. It makes use of the observation that the yellow fluorescent protein (YFP) variant YFP H148Q, I152L, F47L has its fluorescence substantially quenched by halide ions like Cl^− and I^− (Galietta, L. J. V., Haggie, P. M., Verkman, A. S., 2001. Green fluorescent protein-based halide indicators with improved chloride and iodide affinities. FEBS Lett. 499, 220-224. doi:10.1016/S0014-5793(01)02561-3).
(§2) For this purpose, HEK293-cells were seeded in 96 well plates. During seeding, the cells were reverse-transfected with plasmid vectors that direct the expression of the CFTR G551D mutant and of the YFP reporter. Cells were incubated at 37° C., 5% CO2 for 24 hours so as to allow for sufficient expression of the CFTR protein.
(§3) The I^−-induced quenching of fluorescence was recorded immediately after injection of I^− for 7 seconds. The capacity of a compound to increase the channel opening was directly correlated with the decrease in fluorescence, and was expressed as (1−(fluorescence after 7 seconds (F)/fluorescence before injection (F0))) and an EC50 was derived from a (1−F/F0) vs compound concentration plot.
(§4) Similar YHA assays were developed for other channel gating defective or channel conductance defective CFTR mutants to determine effect of compound on channel activity. Examples of mutants are G178R, G1349D, S549N, R117H, R334W. This assay is also used for additional class I CFTR mutants, including G542X, W1282X; class II mutants including N1303K, and for class III mutants including S1251N; or wild-type CFTR.

CFTR-R117H = target: T4, CFTR-R117H (Homo sapiens, UniProt P13569, R117H); assay: YFP-halide influx assay for the CFTR-R117H
T4 construct: expressed in transfected cells
T4 sequence (P13569 whole entry R117H): as the sequence (P13569 whole entry G551D) above, with R117H, D551G counted along it
From the text: as §1, §2, §3, §4

T1 sequence (P13569 with tags, fused parts or gaps DEL508-508): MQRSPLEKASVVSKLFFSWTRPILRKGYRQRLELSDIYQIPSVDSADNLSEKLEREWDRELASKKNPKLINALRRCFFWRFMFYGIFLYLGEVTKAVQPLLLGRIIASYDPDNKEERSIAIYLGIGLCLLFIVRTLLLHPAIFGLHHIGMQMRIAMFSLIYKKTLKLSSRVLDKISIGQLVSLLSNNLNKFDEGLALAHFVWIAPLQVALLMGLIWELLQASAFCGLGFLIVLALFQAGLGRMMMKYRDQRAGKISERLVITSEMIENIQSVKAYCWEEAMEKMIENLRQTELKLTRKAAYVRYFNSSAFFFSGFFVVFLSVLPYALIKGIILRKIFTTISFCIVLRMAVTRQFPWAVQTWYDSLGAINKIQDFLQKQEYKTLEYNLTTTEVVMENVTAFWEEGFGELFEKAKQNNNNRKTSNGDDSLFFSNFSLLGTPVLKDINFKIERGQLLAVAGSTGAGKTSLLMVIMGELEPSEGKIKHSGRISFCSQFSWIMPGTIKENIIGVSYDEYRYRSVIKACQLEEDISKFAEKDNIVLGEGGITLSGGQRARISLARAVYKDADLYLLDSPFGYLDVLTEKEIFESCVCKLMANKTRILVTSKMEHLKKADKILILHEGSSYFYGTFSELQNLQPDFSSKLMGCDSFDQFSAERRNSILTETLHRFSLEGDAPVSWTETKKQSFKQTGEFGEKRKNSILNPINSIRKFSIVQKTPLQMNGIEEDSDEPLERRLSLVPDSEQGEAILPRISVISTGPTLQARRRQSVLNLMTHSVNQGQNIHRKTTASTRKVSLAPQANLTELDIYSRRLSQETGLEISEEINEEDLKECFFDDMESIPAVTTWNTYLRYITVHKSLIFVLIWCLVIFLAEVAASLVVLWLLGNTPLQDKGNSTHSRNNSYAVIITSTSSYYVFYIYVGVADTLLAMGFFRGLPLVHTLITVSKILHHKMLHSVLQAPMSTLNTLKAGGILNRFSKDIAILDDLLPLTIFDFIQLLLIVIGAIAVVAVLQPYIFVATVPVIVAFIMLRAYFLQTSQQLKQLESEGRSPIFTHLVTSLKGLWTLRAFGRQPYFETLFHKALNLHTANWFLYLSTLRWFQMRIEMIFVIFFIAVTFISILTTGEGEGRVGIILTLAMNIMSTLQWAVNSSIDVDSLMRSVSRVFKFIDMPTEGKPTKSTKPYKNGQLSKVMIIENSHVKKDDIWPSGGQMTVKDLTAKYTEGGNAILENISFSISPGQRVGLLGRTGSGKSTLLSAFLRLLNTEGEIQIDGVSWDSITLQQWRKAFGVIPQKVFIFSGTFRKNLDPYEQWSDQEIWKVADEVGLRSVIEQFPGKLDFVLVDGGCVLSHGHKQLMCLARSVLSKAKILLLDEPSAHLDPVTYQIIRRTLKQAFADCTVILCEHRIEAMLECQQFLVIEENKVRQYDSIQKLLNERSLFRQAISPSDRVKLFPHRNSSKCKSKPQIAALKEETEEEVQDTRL

Row | % Activation (CFTR ΔF508 mutant) | EC50 (CFTR ΔF508 mutant) | % Activation (CFTR G551D mutant) | EC50 (CFTR G551D mutant) | % Activation (CFTR-G1349D) | EC50 (CFTR-G1349D) | % Activation (CFTR-R117H) | EC50 (CFTR-R117H) | SMILES
1 | 98.1% | 66.3 nM | 81.9% | 881 nM | 97.6% | 637 nM | 107.0% | 499 nM | COCC1(C)CN(C(=O)c2ncc(S(=O)(=O)c3ccc(OC(F)(F)F)cc3)cc2N)C1 [Compound 154, (3-amino-5-{[4-(trifluoromethoxy)phenyl]sulfonyl}pyridin-2-yl)[3-(methoxymethyl)-3-methylazetidin-1-yl]methanone]
2 | 93.2% | 208 nM | 49.5% | 419 nM | 99.5% | 770 nM | 90.7% | 621 nM | CCOCC1(CNC(=O)c2ncc(S(=O)(=O)c3ccc(OC(F)(F)F)cc3)cc2N)CCC1 [Compound 118, 3-amino-N-{[1-(ethoxymethyl)cyclobutyl]methyl}-5-{[4-(trifluoromethoxy)phenyl]sulfonyl}pyridine-2-carboxamide]
3 | 93.9% | 102 nM | 78.3% | 674 nM | 55.4% | 703 nM | 77.6% | 580 nM | CCC1(F)CN(C(=O)c2ncc(S(=O)(=O)c3ccc(OC(F)(F)F)cc3)cc2N)C1 [Compound 130, (3-amino-5-{[4-(trifluoromethoxy)phenyl]sulfonyl}pyridin-2-yl)(3-ethyl-3-fluoroazetidin-1-yl)methanone]
4 | 101.0% | 34.1 nM | 64.6% | 554 nM | 84.8% | 320 nM | 89.9% | 307 nM | Nc1cc(S(=O)(=O)c2ccc(OC(F)(F)F)cc2)cnc1C(=O)N1CC(OCC(F)F)C1 [Compound 119, (3-amino-5-{[4-(trifluoromethoxy)phenyl]sulfonyl}pyridin-2-yl)[3-(2,2-difluoroethoxy)azetidin-1-yl]methanone]
5 | 97.2% | 11.5 nM | 56.1% | 810 nM | 76.6% | 738 nM | 89.6% | 326 nM | CC1(O)CN(C(=O)c2ncc(S(=O)(=O)c3ccc(C(F)(F)F)cc3)cc2N)C1 [Compound 91, (3-amino-5-{[4-(trifluoromethyl)phenyl]sulfonyl}pyridin-2-yl) (3-hydroxy-3-methylazetidin-1-yl)methanone]
6 | 110.0% | 26.2 nM | 52.6% | 368 nM | 67.7% | 448 nM | 87.8% | 351 nM | Nc1cc(S(=O)(=O)c2ccc(C(F)(F)F)cc2)cnc1C(=O)N1CC(F)(F)C1 [Compound 103, (3-amino-5-{[4-(trifluoromethyl)phenyl]sulfonyl}pyridin-2-yl)(3,3-difluoroazetidin-1-yl)methanone]
7 | 101.0% | 10.1 nM | 55.0% | 1240 nM |  |  |  |  | Nc1cc(S(=O)(=O)c2ccc(F)cc2)cnc1C(=O)NCC(O)C(F)(F)F (stereo not shown) [Compound 27, 3-amino-5-[(4-fluorophenyl)sulfonyl]-N-(3,3,3-trifluoro-2-hydroxypropyl)pyridine-2-carboxamide]
8 | 98.1% | 137 nM | 50.6% | 949 nM |  |  |  |  | Nc1cc(S(=O)(=O)c2ccc(C(F)(F)F)cc2)cnc1C(=O)NCCOC(F)(F)F [Compound 240, 3-amino-N-[2-(trifluoromethoxy)ethyl]-5-{[4-(trifluoromethyl)phenyl]sulfonyl}pyridine-2-carboxamide]
9 | 103.9% | 78.2 nM | 57.4% | 2150 nM |  |  |  |  | Nc1cc(S(=O)(=O)c2ccc(OC(F)(F)F)cc2)cnc1C(=O)NCC1(CO)CCC1 [Compound 23, 3-amino-N-{[1-(hydroxymethyl)cyclobutyl]methyl}-5-{[4-(trifluoromethoxy)phenyl]sulfonyl}pyridine-2-carboxamide]
10 | 105.0% | 44.1 nM | 21.3% | > 10000 nM |  |  |  |  | C[C@H](O)CNC(=O)c1ncc(S(=O)(=O)N(C)C2CCC2)cc1N [Compound 278, 3-amino-5-[cyclobutyl(methyl)sulfamoyl]-N-[(2S)-2-hydroxypropyl]pyridine-2-carboxamide]
11 | 109.5% | 72.1 nM | 67.5% | 1200 nM |  |  |  |  | Nc1cc(S(=O)(=O)c2ccc(OC(F)(F)F)cc2)cnc1C(=O)NCC1COCCO1 (stereo not shown) [Compound 8, 3-amino-N-(1,4-dioxan-2-ylmethyl)-5-{[4-(trifluoromethoxy)phenyl]sulfonyl}pyridine-2-carboxamide]
12 | 102.0% | 11.9 nM | 67.5% | 997 nM |  |  |  |  | CC(C)CC(O)CNC(=O)c1ncc(S(=O)(=O)c2ccc(OC(F)(F)F)cc2)cc1N (stereo not shown) [Compound 87, 3-amino-N-(2-hydroxy-4-methylpentyl)-5-{[4-(trifluoromethoxy)phenyl]sulfonyl}pyridine-2-carboxamide]
13 | 104.2% | 1.3 nM | 41.8% | 5770 nM |  |  |  |  | Nc1cc(S(=O)(=O)c2ccccc2)cnc1C(=O)N1CC(O)(C(F)(F)F)C1 [Compound 255, [3-amino-5-(phenyl sulfonyl)pyridin-2-yl][3-hydroxy-3-(trifluoromethyl)azetidin-1-yl]methanone]
14 | 102.0% | 22.2 nM | 43.4% | 1140 nM |  |  |  |  | CN(C1CC1)S(=O)(=O)c1cnc(C(=O)NCC(O)C(F)(F)F)c(N)c1 (stereo not shown) [Compound 94, 3-amino-5-[cyclopropyl(methyl)sulfamoyl]-N-(3,3,3-trifluoro-2-hydroxypropyl)pyridine-2-carboxamide]
15 | 98.5% | 86.2 nM | 60.5% | 880 nM |  |  |  |  | COCCCNC(=O)c1ncc(S(=O)(=O)c2ccc(OC(F)(F)F)cc2)cc1N [Compound 123, 3-amino-N-(3-methoxypropyl)-5-{[4-(trifluoromethoxy)phenyl]sulfonyl}pyridine-2-carboxamide]
16 | 95.6% | 41.4 nM | 54.0% | 1820 nM |  |  |  |  | C[C@H](O)CCNC(=O)c1ncc(S(=O)(=O)c2ccc(OC(F)(F)F)cc2)cc1N [Compound 53, 3-amino-N-[(3S)-3-hydroxybutyl]-5-{[4-(trifluoromethoxy)phenyl]sulfonyl}pyridine-2-carboxamide]
17 | 98.8% | 205 nM | 53.9% | 836 nM |  |  |  |  | Nc1cc(S(=O)(=O)c2ccc(OC(F)(F)F)cc2)cnc1C(=O)N[C@@H]1CCOc2ccccc21 [Compound 145, 3-amino-N-[(4R)-3,4-dihydro-2H-chromen-4-yl]-5-{[4-(trifluoromethoxy)phenyl]sulfonyl}pyridine-2-carboxamide]
18 | 105.4% | 25.7 nM | 65.4% | 1820 nM |  |  |  |  | COC1CCN(S(=O)(=O)c2cnc(C(=O)NCC(O)C(F)(F)F)c(N)c2)CC1 (stereo not shown) [Compound 196, 3-amino-5-[(4-methoxypiperidin-1-yl)sulfonyl]-N-(3,3,3-trifluoro-2-hydroxypropyl)pyridine-2-carboxamide]
19 | 99.9% | 112 nM | 30.7% | > 10000 nM |  |  |  |  | CC(C)CNC(=O)c1ncc(S(=O)(=O)c2ccc(C(F)(F)F)cc2)cc1N [Compound 189, 3-amino-N-(2-methylpropyl)-5-{[4-(trifluoromethyl)phenyl]sulfonyl}pyridine-2-carboxamide]
20 | 97.1% | 245 nM | 31.0% |  |  |  |  |  | C[C@H](O)CNC(=O)c1nc(OCCN(C)C)c(S(=O)(=O)c2ccc(OC(F)(F)F)cc2)cc1N [Compound 289, 3-amino-6-[2-(dimethylamino)ethoxy]-N-[(2S)-2-hydroxypropyl]-5-{[4-(trifluoromethoxy)phenyl]sulfonyl}pyridine-2-carboxamide]

— US10047051B2, “Substituted pyridines and method of use” (AbbVie S.á{acute over (.)}r.l., priority 2015, dated 2018)
